Experiment [1] concerns C666-1 cells. Briefly: C666-1 cell viability, EC50 from 8-point dilution (Resazurin). As to conditions: 100-0.78 μmol/L, read-out: EC50 Quantitation. It counts as cell-based. As to the method:
In order to assess the effect of the EBNA1 inhibitor at the cellular level, the cytotoxicity assay was performed. The EBNA1 inhibitor selectively killed EBV-positive cell lines ([…]-1 cells), but had no toxicity to EBV-negative cell lines (HONE1 cells and HK1 cells). In the test, 100 μL different cell lines were inoculated in a transparent 96-well plate, each well containing 5×10^3 […]-1 cells. After the cells were cultured in an incubator with 5% carbon dioxide at 37° C. for 24 hours, 10 μL compound at a concentration range from 1 mmol/L to 7.8 μmol/L was added into each well (8 points, 2-fold dilution, the final concentration was 100-0.78 μmol/L), and treated in the incubator with carbon dioxide at 37° C. for 72 hours. The cell viability was assessed using a redox indicator Resazurin. Specifically, 10 μL Resazurin at a concentration of 600 μmol/L was added into each well, and incubated at 37° C. for 3 hours, and a Tecan microplate reader was used to detect the fluorescence signal at an excitation wavelength of 560 nm and an emission wavelength of 590 nm. A software was used to fit the inhibition curve and calculate the concentration for 50% of maximal effect (EC50). The selectivity of compound activity was assessed by comparing the EC50 of EBV-positive and EBV-negative cell lines.

For experiment [2], the system named is C666-1 cells. Briefly: C666-1 cell viability single concentration (50 μM) inhibition rate (Resazurin). It counts as cell-based. As to conditions: Homo sapiens, C6661, 72 h, C666-1 cells. In a few lines:
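Resazurin fluorescence (560/590 nm, 3 h development) gave the proliferation inhibition rate, normalised to DMSO-treated and cell-free blank wells. Compound was tested at a single 50 μmol/L final concentration on C666-1 cells for 72 h at 37° C, with duplicate wells, after 24 h seeding.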
(Resazurin is reduced to fluorescent resorufin, in cell work by metabolically active cells.)

Where [3] appears, read: 50 μM compound, 72 hours, read-out: C666-1 cell viability single concentration (50 μM) inhibition rate, Ratio* (Inh %).
Setting [4] is: single concentration, read-out: Inhibition Rate (Inh %).

Each structure is given as a SMILES string. Where two headings read alike, the source gives them in different places.

Take `COC(=O)c1cccc(N2CC(OC(=O)Nc3ccc(OC)cc3OC)C2)c1-n1cccc1` [Example 146, Methyl 3-(3-(((2,4-dimethoxyphenyl)carbamoyl)oxy)azetidin-1-yl)-2-(1H-pyrrol-1-yl)benzoate]: in the experiment with C666-1 cells [1] (Homo sapiens, C6661, 72 h), the EC50 was greater than 100 µM. The inhibition at 50 µM in the experiment on C666-1 cells [2] (setting [3]) and with C666-1 cells [2] (setting [4]) was 10 to 30% each time.
Regarding `COC(=O)c1cccc(N2CC(OC(=S)Nc3ccc(Cl)cc3)C2)c1-n1cccc1` [Example 147, Methyl 3-(3-(((4-chlorophenyl)thiocarbamoyl)oxy)azetidin-1-yl)-2-(1H-pyrrol-1-yl)benzoate], the EC50 with C666-1 cells [1] (Homo sapiens, C6661, 72 h) was in the range of 50 to 75 µM. Besides, the inhibition at 50 µM with C666-1 cells [2] (setting [3]) and with C666-1 cells [2] (setting [4]) was 30 to 50% in each case.
As for `COC(=O)c1cccc(N2CC(OC(=O)Nc3ccc(Oc4ccccc4)cc3)C2)c1-n1cccc1` [Example 152, Methyl 3-(3-(((4-phenoxyphenyl)carbamoyl)oxy)azetidin-1-yl)-2-(1H-pyrrol-1-yl)benzoate], in the experiment on C666-1 cells [1] (Homo sapiens, C6661, 72 h), the EC50 was greater than 100 µM. In addition, the inhibition at 50 µM with C666-1 cells [2] (setting [3]) and in the experiment with C666-1 cells [2] (setting [4]) was less than 10% throughout.
For the compound `COC(=O)c1cccc(N2CC(OC(=O)Nc3ccc(OC(F)(F)F)cc3)C2)c1-n1cccc1` [Example 153, Methyl 2-(1H-pyrrol-1-yl)-3-(3-(((4-(trifluoromethoxy)phenyl)carbamoyl)oxy)azetidin-1-yl)benzoate], the EC50 with C666-1 cells [1] (Homo sapiens, C6661, 72 h) lay in the range of 75 to 100 µM. Besides, the inhibition at 50 µM in the experiment with C666-1 cells [2] (setting [3]) and in the experiment with C666-1 cells [2] (setting [4]) was 10 to 30% each time.
`COC(=O)c1cccc(N2CC(OC(=O)NCc3ccc(C(F)(F)F)cc3)C2)c1-n1cccc1` [Example 154, Methyl 2-(1H-pyrrol-1-yl)-3-(3-(((4-(trifluoromethyl)benzyl)carbamoyl)oxy)azetidin-1-yl)benzoate]: the 50% effective concentration (EC50) in the experiment with C666-1 cells [1] (Homo sapiens, C6661, 72 h) is greater than 100 µM. For the same compound, the inhibition at 50 µM with C666-1 cells [2] (setting [3]) and in the experiment with C666-1 cells [2] (setting [4]) was 10 to 30% in each case.
`COC(=O)c1cccc(N2CC(=CC(=O)OC(C)(C)C)C2)c1-n1cccc1` [Example 189, Methyl 3-(3-(2-(tert-butoxy)-2-oxovinyl)azetidin-1-yl)-2-(1H-pyrrol-1-yl)benzoate]: in the experiment on C666-1 cells [1] (Homo sapiens, C6661, 72 h), the EC50 is 75 to 100 µM. Besides, the inhibition at 50 µM in the experiment on C666-1 cells [2] (setting [3]) and with C666-1 cells [2] (setting [4]) was 10 to 30% throughout.
Turning to `COc1cccc(Oc2ccc(OC3CN(c4cccc(C(=O)O)c4-n4cccc4)C3)cc2)c1` [Example 197, 3-(3-(4-(3-methoxyphenoxy)phenoxy)azetidin-1-yl)-2-(1H-pyrrol-1-yl) benzoic acid], in the experiment with C666-1 cells [1] (Homo sapiens, C6661, 72 h), the EC50 is greater than 100 µM. Besides, the inhibition at 50 µM in the experiment with C666-1 cells [2] (setting [3]) and with C666-1 cells [2] (setting [4]) was 10 to 30% throughout.
As to `COC(=O)c1cccc(N2CC(Oc3ccc(COC(=O)OC4CCOCC4)cc3)C2)c1-n1cccc1` [Example 234, Methyl 3-(3-(4-(((((tetrahydro-2H-pyran-4-yl)oxy)carbonyl)oxy)methyl)phenoxy)azetidin-1-yl)-2-(1H-pyrrol-1-yl)benzoate], the half-maximal effective concentration (EC50) in the experiment with C666-1 cells [1] (Homo sapiens, C6661, 72 h) was less than 50 µM. The inhibition at 50 µM with C666-1 cells [2] (setting [3]) and in the experiment with C666-1 cells [2] (setting [4]) was greater than 50% each time.
On to `COC(=O)c1cccc(N2CC(Oc3ccc(C(=O)Nc4ccccc4)cc3)C2)c1-n1cccc1` [Example 263, Methyl 3-(3-(4-(phenylcarbamoyl)phenoxy)azetidin-1-yl)-2-(1H-pyrrol-1-yl)benzoate], for which, in the experiment with C666-1 cells [1] (Homo sapiens, C6661, 72 h), the 50% effective concentration (EC50) is greater than 100 µM. Also, the inhibition at 50 µM in the experiment on C666-1 cells [2] (setting [3]) and in the experiment on C666-1 cells [2] (setting [4]) was 10 to 30% each time.
As to `CCNC(=O)c1ccc(OC2CN(c3cccc(C(=O)O)c3-n3cccc3)C2)cc1` [Example 264, 3-(3-(4-(ethylcarbamoyl)phenoxy)azetidin-1-yl)-2-(1H-pyrrol-1-yl)benzoic acid], the concentration for a half-maximal effect (EC50) in the experiment on C666-1 cells [1] (Homo sapiens, C6661, 72 h) was greater than 100 µM. For the same compound, the inhibition at 50 µM in the experiment on C666-1 cells [2] (setting [3]) and with C666-1 cells [2] (setting [4]) was less than 10% throughout.
With `O=C(O)c1cccc(N2CC(Oc3ccc(C(=O)N4CCOCC4)cc3)C2)c1-n1cccc1` [Example 266, 3-(3-(4-(morpholinyl-4-carbonyl)phenoxy)azetidin-1-yl)-2-(1H-pyrrol-1-yl)benzoic acid], the EC50 in the experiment with C666-1 cells [1] (Homo sapiens, C6661, 72 h) is greater than 100 µM. Further, the inhibition at 50 µM in the experiment on C666-1 cells [2] (setting [3]) and with C666-1 cells [2] (setting [4]) was less than 10% each time.
As for `O=C(O)c1cccc(N2CC(Oc3ccc(Oc4ccc(C(F)(F)F)cc4)cc3)C2)c1-n1cccc1` [Example 292, 3-(3-(4-(4-(trifluoromethyl)phenoxy)phenoxy)azetidin-1-yl)2-(1H-pyrrol-1-yl)benzoic acid], the EC50 in the experiment on C666-1 cells [1] (Homo sapiens, C6661, 72 h) was less than 50 µM. In addition, the inhibition at 50 µM in the experiment on C666-1 cells [2] (setting [3]) and in the experiment on C666-1 cells [2] (setting [4]) was greater than 50% throughout.
On to `O=C(Nc1ccccc1)c1ccc(OC2CN(c3cccc(C(=O)O)c3-n3cccc3)C2)cc1` [Example 302, 3-(3-(4-(phenylcarbamoyl)phenoxy)azetidin-1-yl)-2-(1H-pyrrol-1-yl)benzoic acid], for which the concentration for a half-maximal effect (EC50) in the experiment on C666-1 cells [1] (Homo sapiens, C6661, 72 h) was greater than 100 µM. The inhibition at 50 µM with C666-1 cells [2] (setting [3]) and in the experiment with C666-1 cells [2] (setting [4]) was 10 to 30% throughout.
With `COC(=O)c1cccc(C#CN(Cc2ccccc2)S(C)(=O)=O)c1-n1cccc1` [Example 381, Methyl 3-((N-benzylmethylsulfonamido)ethynyl)-2-(1H-pyrrol-1-yl)benzoate], the EC50 in the experiment on C666-1 cells [1] (Homo sapiens, C6661, 72 h) is greater than 100 µM. The inhibition at 50 µM in the experiment with C666-1 cells [2] (setting [3]) and with C666-1 cells [2] (setting [4]) was 30 to 50% throughout.
Take `COC(=O)c1cccc(C#CN(C)S(=O)(=O)c2ccc(C)cc2)c1-n1cccc1` [Example 383]: the EC50 in the experiment with C666-1 cells [1] (72 hours) is greater than 100 µM; with C666-1 cells [1] (Homo sapiens, C6661, 72 h), less than 50 µM. The inhibition at 50 µM with C666-1 cells [2] (setting [3]) lay in the range of 10 to 30%.
With `COC(=O)c1cccc(N2CC(Oc3ccc(CO)cc3)C2)c1-c1cc2ccccc2s1` [Example 395, Methyl 2-(benzo[b]thiophen-2-yl)-3-(3-(4-(hydroxymethyl)phenoxy)azetidin-1-yl)benzoate], the inhibition at 50 µM with C666-1 cells [2] (setting [3]) was 10 to 30%.
The same measure, in the same setting: as for `CN(C)CCNC(=O)c1cccc(N2CC(Oc3ccc(CO)cc3)C2)c1-n1cccc1` [Example 396, N-(2-dimethylamino)ethyl-3-(3-(4-(hydroxymethyl)phenoxy)azetidin-1-yl)-2-(1H-pyrrol-1-yl)benzamide], the figure is less than 10%.

One may read the EC50 as the concentration needed to bring the measured effect to its halfway point.

The values above are taken from patent US20230157996A1, “SMALL-MOLECULE INHIBITOR TARGETING EB VIRUS NUCLEAR ANTIGEN PROTEIN, PREPARATION METHOD AND USE THEREOF” (priority 2020, published 2023).
